According to article PMC4184574, “Enantioselectivity in the cytochrome P450-dependent conversion of tegafur to 5-fluorouracil in human liver microsomes” (Pharmacology Research & Perspectives, 2013):

Biological target: T1, CYP2A6 (Homo sapiens, UniProt P11509)
T1 sequence (P11509 1-494): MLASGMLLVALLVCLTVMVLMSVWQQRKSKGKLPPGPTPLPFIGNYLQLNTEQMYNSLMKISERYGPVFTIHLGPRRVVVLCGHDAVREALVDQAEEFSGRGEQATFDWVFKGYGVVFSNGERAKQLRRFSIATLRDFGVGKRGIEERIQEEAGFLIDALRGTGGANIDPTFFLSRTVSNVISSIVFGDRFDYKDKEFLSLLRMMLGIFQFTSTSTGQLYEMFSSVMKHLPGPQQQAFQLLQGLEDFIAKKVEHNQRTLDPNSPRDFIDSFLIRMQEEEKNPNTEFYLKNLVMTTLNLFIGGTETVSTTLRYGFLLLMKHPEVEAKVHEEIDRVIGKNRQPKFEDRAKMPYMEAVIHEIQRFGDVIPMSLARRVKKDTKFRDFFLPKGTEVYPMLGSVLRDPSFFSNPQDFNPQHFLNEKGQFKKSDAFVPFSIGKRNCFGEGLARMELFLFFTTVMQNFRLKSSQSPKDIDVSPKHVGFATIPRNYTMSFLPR
Experiment: 5-FU formation from FT enantiomers by cDNA-expressed CYP2A6 (kinetics, velocity, RAF contribution)
Settings: for CYP contribution: CYP2A6, RAF method, 30 μmol/L
Excerpt: Human hepatic 9000g supernatant (S9) and cytosolic fraction were purchased from XenoTech, LLC. (pooled preparations from 20 donors; Kansas City, KS). Human hepatic microsomes from five individuals (HG32, HH94, HH81, HH74, and HH31), a pooled preparation from 150 donors, and microsomes prepared from insect cell lines expressing CYP1A2, 2A6, 2B6, 2C8, 2C9, 2C19, 2D6, 2E1, and 3A4 were purchased from BD Gentest. Insect microsomes expressing only NADPH-P450 oxidoreductase and cytochrome b5 were also used as control. These enzymes were stored at −80°C until use.
Metabolic reaction by S9 and cytosol (each 2 mg protein/mL) was carried out in 100 mmol/L phosphate (pH 7.4) because TPase requires phosphate ions for catalyzing the reaction. In some cases, insect microsomes expressing recombinant CYP isoforms (20 pmol/mL) were added to the incubation mixtures in either 50, 100 mmol/L phosphate (pH 7.4) or 100 mmol/L Tris (pH 7.4), depending on supplier's recommendation. Microsomal protein concentrations of all cDNA-expressed CYPs were adjusted to 0.5 mg protein/mL by adding control microsomes expressing NADPH-P450 oxidoreductase and cytochrome b5. The reaction for the assay of FT metabolism was initiated by adding the substrate, following preincubation for 5 min at 37°C. After incubation at 37°C, the reaction was stopped by adding three volumes of ice-cold acetonitrile. The incubation times of microsomes, cytosol, and S9 were 15, 15, and 30 min, respectively. After centrifugation, the supernatant was collected and stored at −80°C until the determination of 5-FU. Because a small portion of FT is nonenzymatically converted to 5-FU, the content of 5-FU spontaneously formed was subtracted from total yield obtained after incubation to correct the activity. The spontaneous degradation of FT to 5-FU was evaluated using enzymes inactivated by heating them at 100°C for 5 min.
Concentration of 5-FU was determined using a LC/MS/MS system. The analytical system consisted of a HP1100 liquid chromatograph (Agilent Technologies, CA) coupled with an API4000 triple-quadrupole mass spectrometer (Applied Biosystems, CA) equipped with Turbo V source and ESI interface. Sample separation was performed using an Unison UK-Amino column (2.0 mm i.d. × 100 mm, 3 μm; Imtakt, Kyoto, Japan) at a flow rate of 0.2 mL/min at 40°C. The mobile phase consisted of 10 mmol/L ammonium acetate/acetonitrile 10:90 (v/v). […] For quantification of 5-FU, the calibration curves were linear over the range 2–1000 ng/mL.
Kinetic studies were performed using microsomes from five human livers (HG32, HH94, HH81, HH74, and HH31), cDNA-expressed CYP isoforms, or pooled human hepatic cytosol. In determining kinetic parameters, FT concentration ranged from 0.03 to 10 mmol/L. All reactions were performed in a linear range of 5-FU formation with respect to protein or CYP concentrations and incubation time.
Intrinsic clearance (CLint) was calculated as a ratio of V/S where V and S were the metabolite formation rate and the concentration of a probe substrate for CYP isoform, respectively, when the substrate concentration was well below the Km value. The RAF for each CYP isoform was calculated according to equation (3) (Venkatakrishnan et al. [2000]). [drawing 3] (3) n = 1A2, 2A6, 2C19, or 2E1.
The contribution of CYPn to the metabolism of R- and S-FT at their concentration of 30 μmol/L was subsequently calculated using equation (4). [drawing 4] (4) VCYPn = 5-FU formation rate in cDNA-expressed CYPn.

Structure (SMILES) | CYP contribution | CLint (cDNA-expressed CYP2A6) | Vmax (cDNA-expressed CYP2A6) | Km (cDNA-expressed CYP2A6)
O=c1[nH]c(=O)n([C@@H]2CCCO2)cc1F [S-FT] | 84.8% | 4.9 nL min^−1 pmol^−1 CYP | 5.6 ± 0.3 pmol min^−1 pmol^−1 CYP | –
O=c1[nH]c(=O)n([C@H]2CCCO2)cc1F [R-FT] | 87.6% | 26 nL min^−1 pmol^−1 CYP | 4.5 ± 0.1 pmol min^−1 pmol^−1 CYP | 170 ± 10 µM
